# Data published in US20180256592A1, “ANTIBACTERIAL COMPOSITIONS” (priority 2015, published 2018).
# Columns and labels:
# Format in all cases: cell-based
# [1] = system: highly resistant gram negative bacterial strains; test: MIC by agar dilution (MHA, CLSI), whole strain panel of Table 1
# Description: (§1) The antibacterial activity of combinations according to the invention was investigated against various bacterial strains. In a typical study, minimum inhibitory concentrations (MICs) were determined using Muller Hinton Agar (MHA) (BD, USA) according to Clinical and Laboratory Standards Institute (CLSI) recommendations, (Clinical and Laboratory Standards Institute (CLSI), Performance Standards for Antimicrobial Susceptibility Testing, 20th Informational Supplement, M 100-S20, Volume 30, No. 1, 2010). In short, the inocula were adjusted to deliver about […] colony forming units (CFU) per spot with a multipoint inoculator (Applied Quality Services, UK). The plates were pored with doubling concentration range of the test combinations according to invention containing MHA. The plates were inoculated and were incubated at 35° C. for 18 hours.
# [2] = system: KP S 440 (OXA 181, SHV, TEM, CTX-M 1); test: MIC by agar dilution (MHA, CLSI); conditions: for MIC: drug alone
# Description: as §1
# [3] = system: KP S 691 (OXA 181, SHV, TEM, CTX-M 1); test: MIC by agar dilution (MHA, CLSI)
# Description: as §1
# [4] = system: Klebsiella H 515 (KPC, class A); test: MIC by agar dilution (MHA, CLSI); conditions: for MIC: drug alone
# Description: as §1
# [5] = system: Klebsiella H 520 (KPC, class A); test: MIC by agar dilution (MHA, CLSI); conditions: for MIC: drug alone
# Description: as §1
# [6] = system: Klebsiella H 521 (KPC, class A); test: MIC by agar dilution (MHA, CLSI); conditions: for MIC: drug alone
# Description: as §1
# [7] = system: Klebsiella H 523 (KPC, class A); test: MIC by agar dilution (MHA, CLSI); conditions: for MIC: drug alone
# Description: as §1
# [8] = system: Klebsiella J 101 (TEM, SHV, OMP); test: MIC by agar dilution (MHA, CLSI); conditions: for MIC: drug alone
# Description: as §1
# [9] = system: Klebsiella J 102 (TEM, SHV, OMP); test: MIC by agar dilution (MHA, CLSI); conditions: for MIC: drug alone
# Description: as §1
# [10] = system: Klebsiella J 117 (SHV, OMP); test: MIC by agar dilution (MHA, CLSI); conditions: for MIC: drug alone
# Description: as §1
# [11] = system: Klebsiella J 130 (SHV, OMP); test: MIC by agar dilution (MHA, CLSI); conditions: for MIC: drug alone
# Description: as §1
# NCTC KP 13442 (OXA-48) = test: MIC by agar dilution (MHA, CLSI); conditions: for MIC: drug alone
# Description: as §1
# [12] = KP S 691 (OXA 181, SHV, TEM, CTX-M 1)
smiles,measurement,setting,value
"CC1(C)[C@H](C(=O)O)N2C(=O)C[C@H]2S1(=O)=O [Sulbactam, sulbactam]",MIC,[1]; read-out: MICs when used alone,> 32 µg/mL
"Nc1nc(/C(=C/CC(=O)O)C(=O)N[C@@H]2C(=O)N3C(C(=O)O)=CCS[C@H]23)cs1 [Ceftibuten, ceftibuten]",MIC in presence of Clavulanic acid (4 μg/ml),[2],2 µg/mL
same,MIC in presence of Sulbactam (4 μg/ml),[2]; + sulbactam 4 μg/ml,4 µg/mL
same,MIC in presence of Tazobactam (4 μg/ml),[2]; + tazobactam 4 μg/ml,4 µg/mL
same,MIC,[2],16 µg/mL
same,MIC,[3],8 µg/mL
same,MIC in presence of Clavulanic acid (4 μg/ml),[3]; [12],1 µg/mL
same,MIC in presence of Sulbactam (4 μg/ml),"[3]; KP S 691 (OXA 181, SHV, TEM, CTX-M 1), + sulbactam 4 μg/ml",2 µg/mL
same,MIC in presence of Tazobactam (4 μg/ml),"[3]; KP S 691 (OXA 181, SHV, TEM, CTX-M 1), + tazobactam 4 μg/ml",2 µg/mL
same,MIC in presence of Clavulanic acid (4 μg/ml),[4],4 µg/mL
same,MIC in presence of Sulbactam (4 μg/ml),[4]; + sulbactam 4 μg/ml,8 µg/mL
same,MIC in presence of Tazobactam (4 μg/ml),[4]; + tazobactam 4 μg/ml,8 µg/mL
same,MIC,[4],16 µg/mL
same,MIC in presence of Clavulanic acid (4 μg/ml),[5],4 µg/mL
same,MIC in presence of Sulbactam (4 μg/ml),[5]; + sulbactam 4 μg/ml,8 µg/mL
same,MIC in presence of Tazobactam (4 μg/ml),[5]; + tazobactam 4 μg/ml,16 µg/mL
same,MIC,[5],32 µg/mL
same,MIC in presence of Clavulanic acid (4 μg/ml),[6],4 µg/mL
same,MIC in presence of Sulbactam (4 μg/ml),[6]; + sulbactam 4 μg/ml,16 µg/mL
same,MIC in presence of Tazobactam (4 μg/ml),[6]; + tazobactam 4 μg/ml,16 µg/mL
same,MIC,[6],32 µg/mL
same,MIC in presence of Clavulanic acid (4 μg/ml),[7],4 µg/mL
same,MIC in presence of Sulbactam (4 μg/ml),[7]; + sulbactam 4 μg/ml,4 µg/mL
same,MIC in presence of Tazobactam (4 μg/ml),[7]; + tazobactam 4 μg/ml,8 µg/mL
same,MIC,[7],16 µg/mL
same,MIC in presence of Clavulanic acid (4 μg/ml),[8],8 µg/mL
same,MIC in presence of Sulbactam (4 μg/ml),[8]; + sulbactam 4 μg/ml,32 µg/mL
same,MIC in presence of Tazobactam (4 μg/ml),[8]; + tazobactam 4 μg/ml,32 µg/mL
same,MIC,[8],> 32 µg/mL
same,MIC in presence of Clavulanic acid (4 μg/ml),[9],8 µg/mL
same,MIC in presence of Sulbactam (4 μg/ml),[9]; + sulbactam 4 μg/ml,32 µg/mL
same,MIC in presence of Tazobactam (4 μg/ml),[9]; + tazobactam 4 μg/ml,32 µg/mL
same,MIC,[9],32 µg/mL
same,MIC in presence of Clavulanic acid (4 μg/ml),[10],0.12 µg/mL
same,MIC in presence of Sulbactam (4 μg/ml),[10]; + sulbactam 4 μg/ml,32 µg/mL
same,MIC in presence of Tazobactam (4 μg/ml),[10]; + tazobactam 4 μg/ml,32 µg/mL
same,MIC,[10],32 µg/mL
same,MIC in presence of Clavulanic acid (4 μg/ml),[11],4 µg/mL
same,MIC in presence of Sulbactam (4 μg/ml),[11]; + sulbactam 4 μg/ml,>32 µg/mL
same,MIC in presence of Tazobactam (4 μg/ml),[11]; + tazobactam 4 μg/ml,>32 µg/mL
same,MIC,[11],> 32 µg/mL
same,MIC in presence of Clavulanic acid (4 μg/ml),NCTC KP 13442 (OXA-48),0.12 µg/mL
same,MIC in presence of Sulbactam (4 μg/ml),NCTC KP 13442 (OXA-48); + sulbactam 4 μg/ml,0.25 µg/mL
same,MIC in presence of Tazobactam (4 μg/ml),NCTC KP 13442 (OXA-48); + tazobactam 4 μg/ml,0.25 µg/mL
same,MIC,NCTC KP 13442 (OXA-48),0.25 µg/mL
same,change of MIC values of ceftibuten in the presence of clavulanic acid,"[1]; strains of Table 1, clavulanic acid 4 μg/ml",significantly reduced
C[C@@H](O)[C@H]1C(=O)N2C(C(=O)O)=C(SCCN=CN)C[C@H]12 [Imipenem],MIC,[2],2 µg/mL
same,MIC,[4],16 µg/mL
same,MIC,[5],> 32 µg/mL
same,MIC,[6],> 32 µg/mL
same,MIC,[7],> 32 µg/mL
same,MIC,[8],4 µg/mL
same,MIC,[9],8 µg/mL
same,MIC,[10],2 µg/mL
same,MIC,[11],4 µg/mL
same,MIC,NCTC KP 13442 (OXA-48),2 µg/mL
"C=CC1=C(C(=O)O)N2C(=O)[C@@H](NC(=O)/C(=N\O)c3csc(N)n3)[C@H]2SC1 [Cefdinir, cefdinir]",MIC in presence of Clavulanic acid (4 μg/ml),[2],>32 µg/mL
same,MIC,[2],> 32 µg/mL
same,MIC,[3],> 32 µg/mL
same,MIC in presence of Clavulanic acid (4 μg/ml),[3]; [12],>32 µg/mL
same,MIC in presence of Clavulanic acid (4 μg/ml),[4],>32 µg/mL
same,MIC,[4],> 32 µg/mL
same,MIC in presence of Clavulanic acid (4 μg/ml),[5],>32 µg/mL
same,MIC,[5],> 32 µg/mL
same,MIC in presence of Clavulanic acid (4 μg/ml),[6],>32 µg/mL
same,MIC,[6],> 32 µg/mL
same,MIC in presence of Clavulanic acid (4 μg/ml),[7],>32 µg/mL
same,MIC,[7],> 32 µg/mL
same,MIC in presence of Clavulanic acid (4 μg/ml),[8],>32 µg/mL
same,MIC,[8],> 32 µg/mL
same,MIC in presence of Clavulanic acid (4 μg/ml),[9],>32 µg/mL
same,MIC,[9],> 32 µg/mL
same,MIC in presence of Clavulanic acid (4 μg/ml),[10],0.5 µg/mL
same,MIC,[10],> 32 µg/mL
same,MIC in presence of Clavulanic acid (4 μg/ml),[11],16 µg/mL
same,MIC,[11],> 32 µg/mL
same,MIC in presence of Clavulanic acid (4 μg/ml),NCTC KP 13442 (OXA-48),32 µg/mL
same,MIC,NCTC KP 13442 (OXA-48),32 µg/mL
